Peptide text beside a SMILES is read from it.
System: Botrytis cinerea (B05.10)
Test: Resazurin antifungal assay of 180 alpha-factor peptide variants towards Botrytis (Example 2)
Type: cell-based
Settings: % inhibition of fungal growth, Botrytis conidia, resazurin; for Inhibition at 10 μM: peptide 10 μM; for Inhibition at 20 μM: peptide 20 μM; for Inhibition at 50 μM: peptide 50 μM; for Inhibition at 100 μM: peptide 100 μM
Outline: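 Resazurin viability read-out (570/620 nm fluorescence) after a 24 h, 20° C incubation of B05.10 conidia, 5000 per well, with peptide at final 10-100 μM. Growth inhibition (%) was derived by subtracting conidia-only fluorescence; four replicates per treatment.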

`CC[C@H](C)[C@H](NC(=O)[C@H](CCCCN)NC(=O)[C@H](CC(C)C)NC(=O)[C@H](Cc1c[nH]c2ccccc12)NC(=O)[C@H](Cc1c[nH]cn1)NC(=O)[C@@H](N)Cc1c[nH]c2ccccc12)C(=O)N[C@@H](Cc1c[nH]c2ccccc12)C(=O)N1CCC[C@H]1C(=O)NCC(=O)N[C@@H](CCC(N)=O)C(=O)N1CCC[C@H]1C(=O)N[C@@H](CCSC)C(=O)N[C@@H](Cc1ccc(O)cc1)C(=O)O` [compound 99] (H-WHWLKIWPGQPMY-OH; N-terminus and C-terminus assumed) was tested. Which “Inhibition at 10 μM” value did it give?
Its value is <90%.

What about the “Inhibition at 20 μM” value of the same molecule?
The value was <90%.

What about the “Inhibition at 50 μM” value of the same molecule?
Its value is 94.66%.

What about the “Inhibition at 100 μM” value of the same molecule?
The value was 100%.

`CSCC[C@H](NC(=O)[C@@H]1CCCN1C(=O)[C@H](CCC(N)=O)NC(=O)CNC(=O)[C@@H]1CCCN1C(=O)[C@H](CCCCN)NC(=O)[C@H](Cc1ccccc1)NC(=O)[C@H](CC(N)=O)NC(=O)[C@H](CC(C)C)NC(=O)[C@H](Cc1ccc(O)cc1)NC(=O)[C@H](CCCCN)NC(=O)[C@@H](N)Cc1c[nH]c2ccccc12)C(=O)N[C@@H](Cc1ccc(O)cc1)C(=O)O` [compound 100] (H-WKYLNFKPGQPMY-OH; N-terminus and C-terminus assumed) was tested. Which “Inhibition at 10 μM” value did it give?
The value was <90%.

And the “Inhibition at 20 μM” value?
Its value is <90%.

What about the “Inhibition at 50 μM” value of the same molecule?
The value was 93.45%.

And the “Inhibition at 100 μM” value?
Its value is 100%.

Which “Inhibition at 10 μM” value does the source give for `CSCC[C@H](NC(=O)[C@@H]1CCCN1C(=O)[C@H](CCC(N)=O)NC(=O)CNC(=O)[C@@H]1CCCN1C(=O)[C@H](CCCCN)NC(=O)[C@H](Cc1ccccc1)NC(=O)[C@H](CCCNC(=N)N)NC(=O)[C@H](CC(C)C)NC(=O)[C@@H](NC(=O)[C@H](Cc1c[nH]cn1)NC(=O)[C@@H](N)Cc1c[nH]c2ccccc12)C(C)C)C(=O)N[C@@H](Cc1ccc(O)cc1)C(=O)O` [compound 101] (H-WHVLRFKPGQPMY-OH; N-terminus and C-terminus assumed) here?
Its value is <90%.

What about the “Inhibition at 20 μM” value of the same molecule?
Its value is <90%.

And the “Inhibition at 50 μM” value?
Its value is 90.50%.

And the “Inhibition at 100 μM” value?
Its value is 100%.

Which results are given for `CSCC[C@H](NC(=O)[C@@H]1CCCN1C(=O)[C@H](CCC(N)=O)NC(=O)CNC(=O)[C@@H]1CCCN1C(=O)[C@H](CCCCN)NC(=O)[C@H](CC(C)C)NC(=O)[C@@H](NC(=O)[C@H](CC(C)C)NC(=O)[C@H](Cc1ccc(O)cc1)NC(=O)[C@H](Cc1c[nH]cn1)NC(=O)[C@@H](N)CCCCN)[C@@H](C)O)C(=O)N[C@@H](Cc1ccc(O)cc1)C(=O)O` [compound 102] (H-KHYLTLKPGQPMY-OH; N-terminus and C-terminus assumed)?
Inhibition at 10 μM: <90%; Inhibition at 20 μM: <90%; Inhibition at 50 μM: <90%; Inhibition at 100 μM: 98.51%

What does the source list for `CSCC[C@H](NC(=O)[C@@H]1CCCN1C(=O)[C@H](CCC(N)=O)NC(=O)CNC(=O)[C@@H]1CCCN1C(=O)[C@H](CCCCN)NC(=O)[C@H](CC(C)C)NC(=O)[C@H](C)NC(=O)[C@H](CC(C)C)NC(=O)[C@H](Cc1ccc(O)cc1)NC(=O)[C@H](Cc1c[nH]cn1)NC(=O)[C@@H](N)CCCCN)C(=O)N[C@@H](Cc1ccc(O)cc1)C(=O)O` [compound 103] (H-KHYLALKPGQPMY-OH; N-terminus and C-terminus assumed)?
Inhibition at 10 μM: <90%; Inhibition at 20 μM: <90%; Inhibition at 50 μM: <90%; Inhibition at 100 μM: 98.77%

With `CC[C@H](C)[C@H](NC(=O)CNC(=O)[C@H](CCCNC(=N)N)NC(=O)[C@@H](N)CCCCN)C(=O)N[C@@H](CC(N)=O)C(=O)N[C@@H](CC(C)C)C(=O)N[C@@H](CCCCN)C(=O)N1CCC[C@H]1C(=O)NCC(=O)N[C@@H](CCC(N)=O)C(=O)N1CCC[C@H]1C(=O)N[C@@H](CCSC)C(=O)N[C@@H](Cc1ccc(O)cc1)C(=O)O` [compound 104] (H-KRGINLKPGQPMY-OH; N-terminus and C-terminus assumed) as the molecule, how does the “Inhibition at 10 μM” value read?
Its value is <90%.

What about the “Inhibition at 20 μM” value of the same molecule?
The value was <90%.

What about the “Inhibition at 50 μM” value of the same molecule?
The value was <90%.

And the “Inhibition at 100 μM” value?
The value was 99.59%.

What does the source list for `CC[C@H](C)[C@H](NC(=O)[C@H](Cc1c[nH]cn1)NC(=O)[C@@H](N)Cc1c[nH]c2ccccc12)C(=O)N[C@@H](CC(C)C)C(=O)N[C@@H](CCCNC(=N)N)C(=O)N[C@@H](Cc1ccccc1)C(=O)N[C@@H](CCCCN)C(=O)N[C@@H](CC(N)=O)C(=O)NCC(=O)N[C@@H](CCSC)C(=O)N1CCC[C@H]1C(=O)N[C@@H](CCSC)C(=O)N[C@@H](Cc1ccc(O)cc1)C(=O)O` [compound 105] (H-WHILRFKNGMPMY-OH; N-terminus and C-terminus assumed)?
Inhibition at 10 μM: <90%; Inhibition at 20 μM: <90%; Inhibition at 50 μM: <90%; Inhibition at 100 μM: 100%

Which results are given for `CSCC[C@H](NC(=O)[C@@H]1CCCN1C(=O)[C@H](CCC(=O)O)NC(=O)CNC(=O)[C@H](CCCCN)NC(=O)[C@H](CCCCN)NC(=O)[C@H](CC(C)C)NC(=O)[C@H](CCC(N)=O)NC(=O)[C@@H](NC(=O)[C@H](Cc1c[nH]c2ccccc12)NC(=O)[C@H](Cc1c[nH]cn1)NC(=O)[C@@H](N)Cc1c[nH]c2ccccc12)C(C)C)C(=O)N[C@@H](Cc1ccc(O)cc1)C(=O)O` [compound 106] (H-WHWVQLKKGEPMY-OH; N-terminus and C-terminus assumed)?
Inhibition at 10 μM: <90%; Inhibition at 20 μM: <90%; Inhibition at 50 μM: <90%; Inhibition at 100 μM: 100%

Which “Inhibition at 10 μM” value does the source give for `CSCC[C@H](NC(=O)[C@@H]1CCCN1C(=O)[C@H](CCC(N)=O)NC(=O)CNC(=O)[C@@H]1CCCN1C(=O)[C@H](CCCCN)NC(=O)[C@H](CC(C)C)NC(=O)[C@H](CO)NC(=O)[C@H](CC(C)C)NC(=O)[C@H](Cc1ccccc1)NC(=O)[C@H](Cc1c[nH]cn1)NC(=O)[C@@H](N)CCCCN)C(=O)N[C@@H](Cc1ccc(O)cc1)C(=O)O` [compound 107] (H-KHFLSLKPGQPMY-OH; N-terminus and C-terminus assumed) here?
The value was <90%.

And the “Inhibition at 20 μM” value?
Its value is <90%.

And the “Inhibition at 50 μM” value?
Its value is <90%.

What about the “Inhibition at 100 μM” value of the same molecule?
The value was 98.74%.

Which results are given for `CSCC[C@H](NC(=O)[C@@H]1CCCN1C(=O)[C@H](CCC(N)=O)NC(=O)CNC(=O)[C@H](Cc1ccc(O)cc1)NC(=O)[C@H](CC(N)=O)NC(=O)[C@H](CC(C)C)NC(=O)[C@H](CCCCN)NC(=O)[C@H](CC(C)C)NC(=O)[C@H](Cc1c[nH]c2ccccc12)NC(=O)[C@H](Cc1c[nH]cn1)NC(=O)[C@@H](N)Cc1c[nH]c2ccccc12)C(=O)N[C@@H](Cc1ccc(O)cc1)C(=O)O` [compound 108] (H-WHWLKLNYGQPMY-OH; N-terminus and C-terminus assumed)?
Inhibition at 10 μM: <90%; Inhibition at 20 μM: <90%; Inhibition at 50 μM: <90%; Inhibition at 100 μM: 100%

What does the source list for `CC[C@H](C)[C@H](NC(=O)[C@H](CCC(N)=O)NC(=O)[C@H](CC(C)C)NC(=O)[C@H](Cc1c[nH]c2ccccc12)NC(=O)[C@H](CCCNC(=N)N)NC(=O)[C@@H](N)CCCCN)C(=O)N[C@@H](CCCNC(=N)N)C(=O)N1CCC[C@H]1C(=O)NCC(=O)N[C@@H](CCC(=O)O)C(=O)N1CCC[C@H]1C(=O)N[C@@H](CCSC)C(=O)N[C@@H](Cc1ccc(O)cc1)C(=O)O` [compound 109] (H-KRWLQIRPGEPMY-OH; N-terminus and C-terminus assumed)?
Inhibition at 10 μM: <90%; Inhibition at 20 μM: <90%; Inhibition at 50 μM: <90%; Inhibition at 100 μM: 98.64%

Which results are given for `CC[C@H](C)[C@H](NC(=O)[C@H](CO)NC(=O)[C@H](CC(C)C)NC(=O)[C@H](Cc1c[nH]c2ccccc12)NC(=O)[C@H](Cc1c[nH]cn1)NC(=O)[C@@H](N)Cc1c[nH]c2ccccc12)C(=O)N[C@@H](CCCCN)C(=O)N1CCC[C@H]1C(=O)NCC(=O)N[C@@H](CCC(N)=O)C(=O)NCC(=O)N[C@@H](CCSC)C(=O)N[C@@H](Cc1ccc(O)cc1)C(=O)O` [compound 110] (H-WHWLSIKPGQGMY-OH; N-terminus and C-terminus assumed)?
Inhibition at 50 μM: <90%; Inhibition at 100 μM: 97.94%

Which results are given for `CSCC[C@H](NC(=O)[C@@H]1CCCN1C(=O)[C@H](CO)NC(=O)CNC(=O)[C@@H]1CCCN1C(=O)CNC(=O)[C@H](Cc1ccccc1)NC(=O)[C@H](CCC(N)=O)NC(=O)[C@@H](NC(=O)[C@H](Cc1c[nH]c2ccccc12)NC(=O)[C@H](Cc1c[nH]cn1)NC(=O)[C@@H](N)Cc1c[nH]c2ccccc12)C(C)C)C(=O)N[C@@H](Cc1ccc(O)cc1)C(=O)O` [compound 111] (H-WHWVQFGPGSPMY-OH; N-terminus and C-terminus assumed)?
Inhibition at 10 μM: <90%; Inhibition at 20 μM: <90%; Inhibition at 50 μM: <90%; Inhibition at 100 μM: 96.65%

Which results are given for `CSCC[C@H](NC(=O)[C@@H]1CCCN1C(=O)[C@H](CCC(N)=O)NC(=O)CNC(=O)[C@@H]1CCCN1C(=O)[C@H](CCCCN)NC(=O)[C@H](CC(C)C)NC(=O)[C@H](CCCNC(=N)N)NC(=O)[C@H](CC(C)C)NC(=O)[C@H](Cc1ccccc1)NC(=O)[C@H](Cc1c[nH]cn1)NC(=O)[C@@H]1CCCN1)C(=O)N[C@@H](Cc1ccc(O)cc1)C(=O)O` [compound 112] (H-PHFLRLKPGQPMY-OH; N-terminus and C-terminus assumed)?
Inhibition at 50 μM: <90%; Inhibition at 100 μM: 99.57%

How did the “Inhibition at 50 μM” value turn out when `CSCC[C@H](NC(=O)[C@@H]1CCCN1C(=O)[C@H](CCC(N)=O)NC(=O)CNC(=O)[C@@H]1CCCN1C(=O)[C@H](CCCCN)NC(=O)[C@H](CC(C)C)NC(=O)[C@H](CC(N)=O)NC(=O)[C@H](CC(C)C)NC(=O)[C@H](CC(C)C)NC(=O)[C@H](Cc1c[nH]cn1)NC(=O)[C@@H](N)CCCCN)C(=O)N[C@@H](Cc1ccc(O)cc1)C(=O)O` [compound 113] (H-KHLLNLKPGQPMY-OH; N-terminus and C-terminus assumed) was run?
Its value is <90%.

What about the “Inhibition at 100 μM” value of the same molecule?
The value was 98.44%.

— patent US20250382332A1, “NOVEL ALPHA-FACTOR BASED PEPTIDES WITH ANTIFUNGAL ACTIVITY” (INVAIO SCIENCES, INC., priority 2024, published 2025)
